The source of these data is ChEMBL document CHEMBL1150230, “Mappain, a new cytotoxic prenylated stilbene from Macaranga mappa” (J Nat Prod, 2001).

Common to all, as to type: functional, cell-based
The test system of one assay is SK-OV-3. The assay is described as follows: Cytotoxicity against multidrug-sensitive human SKOV3 cells by SRB assay.
Assay [1] can be described thus: Cytotoxicity against multidrug-resistant human SKVLB1cells by SRB assay. (Sulforhodamine B stains cellular protein and so reports cell mass.)
In a further assay the test system is MDA-MB-435. The assay can be described thus: Cytotoxicity against multidrug-sensitive human MDA-MB-435 cells by SRB assay.

As a reminder, the IC50 is the concentration needed to halve the response being measured.

Take `CC(C)=CCC/C(C)=C/Cc1cc(/C=C/c2cc(O)c(CC=C(C)C)c(O)c2)cc(O)c1O` [MAPPAIN]: the IC50 in the assay on SK-OV-3 is 1300 nM; in assay [1], 1300 nM; in the assay with MDA-MB-435 it was 1000 nM.
